Values after ≈ are worked out from the molar mass of the structure shown. Where two headings read alike, the source gives them in different places. Bounds are passed on as bounds.

The text below walks through data of US5075289A, “9-R-azacyclic erythromycin antibiotics” (priority 1988, dated 1991).

For test [1], the system named is Haemophilus influenzae DILL AMP R. Description: In vitro antibacterial activity, agar dilution MIC. Conditions: H. influenzae DILL AMP R. The format is cell-based. The procedure, abridged:
(§1)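 In agar dilution on Brain Heart Infusion agar, twelve successive compound dilutions were inoculated at 1:100 (1:10 for slow growers such as Streptococcus) by replicator and incubated 20–24 h at 35–37 °C. MIC is the lowest concentration giving no growth, slight haze or sparse colonies; erythromycin A was the class control.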
(In general: Agar dilution tests growth on a series of plates holding different concentrations.)

Test [2] has as its system Staphylococcus aureus 45 RAR 2. As to the kind of experiment: microbe, parasite or virus in culture. Conditions: 45RAR2. The test is classed as cell-based. In outline:
as §1

The subject of test [3] is Staphylococcus aureus (NCTC 10649). Description: In-vivo mouse protection assay (acute mouse protection test). Set-up: species or system Swiss albino mice. Conditions: S. aureus NCTC 10649, dosed 1 and 5 hours post infection, 7 days, read-out: ED50. As for the experimental part:
(§2) The acute mouse protection test is conducted on ten mice with each of three levels of drug. Mouse mortality is used to calculate an ED50 value, i.e., the dose of drug required to protect 50% of the test animals against death due to the inoculum challenge.
(§3) The acute mouse protection test is conducted on female, Swiss albino mice, 18-20 grams in weight. […] To check the potency of the inoculum, a titration of the indicated test organism is carried out in control animals. The treatment group of animals is dosed with the test compound at 1 and 5 hours post infection and observed for 7 days. The ED50 values are calculated using the mortality data collected.

In test [4] the test system is Streptococcus pneumoniae (6303). Described as above. Set-up: species or system Swiss albino mice. Conditions: 168 h, S. pneumoniae 6303, dosed 1 and 5 hours post infection, 7 days, read-out: ED50. As for the experimental part: as §2, §3
For test [5], the system named is Streptococcus pyogenes C-203. The description is as above. Set-up: species or system Swiss albino mice. The method, then:
as §2, §3

Where [6] appears, read: NCTC10649, sc, 168 h, Subcutaneous.
Setting [7] is: C203, 168 h, Oral, S. pyogenes C-203, dosed 1 and 5 hours post infection, 7 days, read-out: ED50.

For orientation: ED50 means the dose at which the effect has come halfway, by size or by number of responders. Take `CC[C@H]1OC(=O)[C@H](C)[C@@H](O[C@H]2C[C@@](C)(OC)[C@@H](O)[C@H](C)O2)[C@H](C)[C@@H](O[C@@H]2O[C@H](C)C[C@H](N(C)C)[C@H]2O)[C@](C)(O)C[C@@H](C)[C@@H](N2CCCCC2)[C@H](C)[C@@H](O)[C@]1(C)O` [Example 5]: the MIC is 1 µg/mL (≈ 1.25 µM) in test [1] and 0.78 µg/mL (≈ 0.971 µM) in test [2]. Further, the ED50 in test [3] (NCTC10649, 168 h, Oral) was 41.9 mg/kg; in test [3] (setting [6]), 7.5 mg/kg; in test [4] (Oral), 4.5 mg/kg; in test [4] (sc, Subcutaneous), 0.4 mg/kg; in test [5] (setting [7]), under 7.5 mg/kg; in test [5] (C203, sc, 168 h, Subcutaneous, S. pyogenes C-203, dosed 1 and 5 hours post infection, 7 days, read-out: ED50) it was under 0.6 mg/kg.
Regarding `CC[C@H]1OC(=O)[C@H](C)[C@@H](O[C@H]2C[C@@](C)(OC)[C@@H](O)[C@H](C)O2)[C@H](C)[C@@H](O[C@@H]2O[C@H](C)C[C@H](N(C)C)[C@H]2O)[C@](C)(O)C[C@@H](C)[C@@H](N2CCOCC2)[C@H](C)[C@@H](O)[C@]1(C)O` [Example 19], the values for the MIC in test [1] and in test [2] were 2 µg/mL (≈ 2.48 µM) and 0.39 µg/mL (≈ 0.484 µM), respectively. For the same compound, the ED50 was 44.8 mg/kg in test [3] (NCTC10649, 168 h, Oral); 15.5 mg/kg in test [3] (setting [6]); 9.7 mg/kg in test [4] (Oral); 1.1 mg/kg in test [4] (sc, Subcutaneous); 9.5 mg/kg in test [5] (setting [7]); 2.1 mg/kg in test [5] (C203, sc, 168 h).
